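Compound exposure: 48 hours, 5 concentrations, 96-well plates. GI50 is the concentration that inhibits growth by half. TGI: total growth inhibition.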
What was measured:
Experiment in all cases: NCI tumour cell line growth inhibition, 48 h
SNB-19 CNS = tested on: SNB-19 CNS
NCI-H522 lung = tested on: NCI-H522 lung
HOP-92 NSCLC = tested on: HOP-92 NSCLC
COLO 205 colon = tested on: COLO 205 colon
SF-295 CNS = tested on: SF-295 CNS
SF-539 CNS = tested on: SF-539 CNS
NCI/ADR-RES ovarian = tested on: NCI/ADR-RES ovarian
SF-268 CNS = tested on: SF-268 CNS
NCI-H460 lung = tested on: NCI-H460 lung
HCT-116 colon = tested on: HCT-116 colon

Row | SMILES | TGI (SNB-19 CNS) [µM] | TGI (NCI-H522 lung) [µM] | TGI (HOP-92 NSCLC) [µM] | TGI (COLO 205 colon) [µM] | TGI (SF-295 CNS) [µM] | TGI (SF-539 CNS) [µM] | TGI (NCI/ADR-RES ovarian) [µM] | TGI (SF-268 CNS) [µM] | TGI (NCI-H460 lung) [µM] | TGI (HCT-116 colon) [µM] | GI50 (SNB-19 CNS) [µM] | GI50 (HOP-92 NSCLC) [µM] | GI50 (COLO 205 colon) [µM] | GI50 (SF-295 CNS) [µM] | GI50 (SF-539 CNS) [µM] | GI50 (NCI/ADR-RES ovarian) [µM] | GI50 (SF-268 CNS) [µM] | GI50 (NCI-H460 lung) [µM] | GI50 (HCT-116 colon) [µM]
1 | O=C1CCN2c3ccccc3[C@H]3Cc4cccc(c4[C@@H]2C3)CCO1 | > 100 | > 100 | > 100 | > 100 | > 100 | > 100 | > 100 | > 100 | > 100 | > 100 |  |  |  |  |  |  |  |  | 
2 | CC(C)Oc1c(C2(c3ccccc3)SCCCS2)c(=O)c1=O | > 100 | 97.3 | > 100 | > 100 | > 100 | > 100 | > 100 | > 100 | > 100 | > 100 |  |  |  |  |  |  |  |  | 
3 | CC1=NN(c2nc(N)nc(NS(=O)(=O)c3cc(C)c(Cl)cc3S)n2)C(C)(C)C1 | > 10 | > 10 | > 10 | > 10 | > 10 | > 10 | > 10 | > 10 | > 10 | > 10 |  |  |  |  |  |  |  |  | 
4 | Cc1ccc(/C=C2\Sc3scc(-c4ccccc4)[n+]3C2=O)cc1 | > 72 | 19.6 | > 49.7 | 52.4 | > 70.3 | > 60.6 | > 58 | 45.5 | 42.4 | > 52.1 |  |  |  |  |  |  |  |  | 
5 | COc1ccc(Nc2nc3ccccc3n3cccc23)cc1OC | > 100 | 31.2 | > 100 | 27.4 | 35.4 | 35 | 56.1 | 53.3 | 27.5 | 36.4 |  |  |  |  |  |  |  |  | 
6 | CC1(C)C2CCC3CC(CCC#N)CCC3C21C#N (centres undefined) | > 100 | > 100 | > 100 | > 100 | > 100 | > 100 | > 100 | > 100 | > 100 | > 100 |  |  |  |  |  |  |  |  | 
7 | C#CC[C@@H]1C(=O)N(Cc2ccc(OC)cc2)[C@@H](C(C)C)C(=O)N1Cc1ccc(OC)cc1 | > 100 | 99.5 | > 100 | 37 | > 100 | > 100 | > 100 | > 100 | > 100 | > 100 |  |  |  |  |  |  |  |  | 
8 | CC1=NN=C(C)C1N=Nc1ccc2nc(C)[nH]c2c1 | > 100 | > 100 | 65.4 | > 100 | > 75.1 | > 88.6 | > 100 | > 83.1 | > 100 | > 72.5 |  |  |  |  |  |  |  |  | 
9 | CCN(CC)CCCNc1c2c(Cl)cc(Cl)cc2nc2nc(=O)[nH]c(C)c12 | 44.3 | 46.9 | > 100 | > 100 | > 100 | > 100 | > 100 | 52.5 | 37.1 | 36.9 |  |  |  |  |  |  |  |  | 
10 | NS(=O)(=O)c1ccc(NC(=O)N/N=C/c2ccccc2O)cc1 | > 100 | > 100 | > 100 | > 100 | > 100 | > 100 | > 100 | > 100 | > 100 | > 100 |  |  |  |  |  |  |  |  | 
11 | COc1nc(N=P(c2ccccc2)(c2ccccc2)c2ccccc2)cc(=O)n1C | > 100 | > 100 | > 100 | > 100 | > 100 | > 100 | > 100 | > 100 | > 100 | > 100 |  |  |  |  |  |  |  |  | 
12 | COC1(CC[C@@H](C)COC2OC(CO)C(O)C(O)C2O)O[C@H]2C[C@H]3[C@@H]4CC=C5C[C@@H](OC6OC(CO)C(OC7OC(C)C(O)C(O)C7O)C(O)C6OC6OC(C)C(O)C(O)C6O)CC[C@]5(C)[C@H]4CC[C@]3(C)[C@H]2[C@@H]1C (some centres undefined) | 6.54 | 4.23 | 7.97 | 19.2 | 5.22 | 2.86 | 6.19 | 6.76 | 5.43 | 10.4 | 2.46 | 2.32 | 2.99 | 2.02 | 1.22 | 2.59 | 2.38 | 1.62 | 1.96
13 | C[C@]12C=CC(=O)C=C1CC[C@@H]1[C@@H]2CC[C@@]2(C)[C@H]1CC[C@]2(O)C(N)=O | > 100 | > 100 | > 100 | > 100 | > 100 | > 100 | > 100 | > 100 | > 100 | > 100 |  |  |  |  |  |  |  |  | 
14 | O=C1N=C2SC=C(NC(=S)Nc3ccccc3)N2NC12c1ccccc1-c1ccccc12 | > 10 | > 10 | > 10 | > 10 | > 10 | > 10 | > 10 | > 10 | > 10 | > 10 |  |  |  |  |  |  |  |  | 
15 | CCOC1OC(CO)C(O)CC1n1ccc(=O)[nH]c1=O (centres undefined) | > 100 | > 100 | > 100 | > 100 | > 100 | > 100 | > 100 | > 100 | > 100 | > 100 |  |  |  |  |  |  |  |  | 

From PubChem BioAssay (NCI)
